Experimental data taken from patent publication US7612064B2, “Sulfopyrroles” (Takeda Pharmaceutical Company Limited, priority 2003, dated 2009).

Columns and labels:
HeLa = test: MTS proliferation assay; assay type: cell-based, human; settings: 72 h
In short: (§1)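 Absorbance at 492 nm after a 3 h MTS incubation reports viable cell number. Before that, compounds at 10 μM, 3 μM, 1 μM and 0.3 μM final stay on the cells for 72 h at culture conditions.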

Jurkat = test: MTS proliferation assay; assay type: cell-based, human; settings: 72 h
In short: as §1

Jily = test: MTS proliferation assay; assay type: cell-based; settings: 72 h
In short: as §1

MRC5 = test: MTS proliferation assay; assay type: cell-based; settings: MRC5, 72 h
In short: as §1

[1] = Hoechst 33342 nuclear staining; assay type: cell-based; settings: for Hoechst 33342 nuclear staining score, H460: H460 cells; for Hoechst 33342 nuclear staining score, HeLa: HeLa cells; for Hoechst 33342 nuclear staining score, Jily: Jily cells; for Hoechst 33342 nuclear staining score, Jurkat: Jurkat cells; for Hoechst 33342 nuclear staining score, MRC5: MRC5 cells;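 as to all read-outs here: apoptotic nuclei scored 0 none 1 weak under 50% of cells 2 strong over 50% of cells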
In short: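 After a further 30 min incubation, plates were inspected on a standard inverted fluorescence microscope. The fraction of apoptotic nuclei and other apoptosis-specific morphology were scored as 0 for no activity, 1 for weak activity in less than 50% of the cells, and 2 for strong activity in more than 50% of the cells.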

Row | Compound | IC50 (Jily) [nM] | Hoechst 33342 nuclear staining score, H460 ([1]; conc 0.1) | Hoechst 33342 nuclear staining score, H460 ([1]; conc 0.3) | Hoechst 33342 nuclear staining score, H460 ([1]; conc 1) | Hoechst 33342 nuclear staining score, H460 ([1]; conc 3) | Hoechst 33342 nuclear staining score, HeLa ([1]; conc 0.1) | Hoechst 33342 nuclear staining score, HeLa ([1]; conc 0.3) | Hoechst 33342 nuclear staining score, HeLa ([1]; conc 1) | Hoechst 33342 nuclear staining score, HeLa ([1]; conc 3) | Hoechst 33342 nuclear staining score, Jily ([1]; conc 0.1) | Hoechst 33342 nuclear staining score, Jily ([1]; conc 0.3) | Hoechst 33342 nuclear staining score, Jily ([1]; conc 1) | Hoechst 33342 nuclear staining score, Jily ([1]; conc 3) | Hoechst 33342 nuclear staining score, Jurkat ([1]; conc 0.1) | Hoechst 33342 nuclear staining score, Jurkat ([1]; conc 0.3) | Hoechst 33342 nuclear staining score, Jurkat ([1]; conc 1) | Hoechst 33342 nuclear staining score, Jurkat ([1]; conc 3) | Hoechst 33342 nuclear staining score, MRC5 ([1]; conc 0.1) | Hoechst 33342 nuclear staining score, MRC5 ([1]; conc 0.3) | Hoechst 33342 nuclear staining score, MRC5 ([1]; conc 1) | further results
1 | COc1ccc(S(=O)(=O)n2cc(-c3ccc(N)nc3)cc2-c2ccc(OC)cc2OC)cc1 [Example 102] | < 1000 | 0 | 0 | 1 (weak activity comprising less than 50% of the cells) | 2 (strong activity comprising more than 50% of the cells) | 0 | 0 | 1 (weak activity comprising less than 50% of the cells) | 2 (strong activity comprising more than 50% of the cells) | 0 | 0 | 2 (strong activity comprising more than 50% of the cells) | 2 (strong activity comprising more than 50% of the cells) | 0 | 0 | 2 (strong activity comprising more than 50% of the cells) | 2 (strong activity comprising more than 50% of the cells) | 0 | 0 | 0 | IC50 (HeLa): > 1000 nM; IC50 (Jurkat): < 1000 nM; IC50 (MRC5): > 1000 nM; Hoechst 33342 nuclear staining score, MRC5 ([1]; conc 3): 2 (strong activity comprising more than 50% of the cells); Hoechst 33342 nuclear staining score, PBLs ([1]; conc 0.1): 0; Hoechst 33342 nuclear staining score, PBLs ([1]; conc 0.3): 0; Hoechst 33342 nuclear staining score, PBLs ([1]; conc 1): 0; Hoechst 33342 nuclear staining score, PBLs ([1]; conc 3): 0
2 | COc1ccc(S(=O)(=O)n2cc(-c3ccc(N)nc3)cc2-c2ccccc2OC)cc1 [Example 103] | < 1000 | 0 | 0 | 0 | 2 (strong activity comprising more than 50% of the cells) | 0 | 0 | 0 | 2 (strong activity comprising more than 50% of the cells) | 0 | 0 | 2 (strong activity comprising more than 50% of the cells) | 2 (strong activity comprising more than 50% of the cells) | 0 | 0 | 2 (strong activity comprising more than 50% of the cells) | 2 (strong activity comprising more than 50% of the cells) | 0 | 0 | 0 | IC50 (HeLa): > 1000 nM; IC50 (Jurkat): < 1000 nM; IC50 (MRC5): > 1000 nM; Hoechst 33342 nuclear staining score, MRC5 ([1]; conc 3): 1 (weak activity comprising less than 50% of the cells); Hoechst 33342 nuclear staining score, PBLs ([1]; conc 0.1): 0; Hoechst 33342 nuclear staining score, PBLs ([1]; conc 0.3): 0; Hoechst 33342 nuclear staining score, PBLs ([1]; conc 1): 0; Hoechst 33342 nuclear staining score, PBLs ([1]; conc 3): 0
3 | COc1ccc(S(=O)(=O)n2cc(-c3cncc(C(N)=O)c3)cc2-c2cc(OC)c(OC)c(OC)c2)cc1 [Example 104, 4-(3-Aminocarbonylpyrid-5-yl)-1-p-methoxyphenylsulfonyl-2-(3,4,5-trimethoxyphenyl)-pyrrole] | < 200 | 0 | 2 (strong activity comprising more than 50% of the cells) | 2 (strong activity comprising more than 50% of the cells) | 2 (strong activity comprising more than 50% of the cells) | 0 | 2 (strong activity comprising more than 50% of the cells) | 2 (strong activity comprising more than 50% of the cells) | 2 (strong activity comprising more than 50% of the cells) | 0 | 2 (strong activity comprising more than 50% of the cells) | 2 (strong activity comprising more than 50% of the cells) | 2 (strong activity comprising more than 50% of the cells) | 0 | 2 (strong activity comprising more than 50% of the cells) | 2 (strong activity comprising more than 50% of the cells) | 2 (strong activity comprising more than 50% of the cells) | 0 | 1 (weak activity comprising less than 50% of the cells) | 2 (strong activity comprising more than 50% of the cells) | IC50 (HeLa; Homo sapiens): < 1000 nM; IC50 (Jurkat; Homo sapiens): < 200 nM; IC50 (MRC5; Homo sapiens): < 200 nM; Hoechst 33342 nuclear staining score, MRC5 ([1]; conc 3): 2 (strong activity comprising more than 50% of the cells); Hoechst 33342 nuclear staining score, PBLs ([1]; conc 0.1): 0; Hoechst 33342 nuclear staining score, PBLs ([1]; conc 0.3): 0; Hoechst 33342 nuclear staining score, PBLs ([1]; conc 1): 0; Hoechst 33342 nuclear staining score, PBLs ([1]; conc 3): 0
4 | COc1ccc(S(=O)(=O)n2cc(-c3cncc(C(N)=O)c3)cc2-c2cc(OC)ccc2OC)cc1 [Example 105] | < 1000 | 0 | 0 | 0 | 2 (strong activity comprising more than 50% of the cells) | 0 | 0 | 0 | 2 (strong activity comprising more than 50% of the cells) | 0 | 0 | 2 (strong activity comprising more than 50% of the cells) | 2 (strong activity comprising more than 50% of the cells) | 0 | 0 | 2 (strong activity comprising more than 50% of the cells) | 2 (strong activity comprising more than 50% of the cells) | 0 | 0 | 0 | IC50 (HeLa): > 1000 nM; IC50 (Jurkat): < 1000 nM; IC50 (MRC5): > 1000 nM; Hoechst 33342 nuclear staining score, MRC5 ([1]; conc 3): 1 (weak activity comprising less than 50% of the cells); Hoechst 33342 nuclear staining score, PBLs ([1]; conc 0.1): 0; Hoechst 33342 nuclear staining score, PBLs ([1]; conc 0.3): 0; Hoechst 33342 nuclear staining score, PBLs ([1]; conc 1): 0; Hoechst 33342 nuclear staining score, PBLs ([1]; conc 3): 0
5 | COc1ccc(S(=O)(=O)n2cc(-c3cncc(C(N)=O)c3)cc2-c2ccc(OC)cc2OC)cc1 [Example 106] | > 1000 | 0 | 0 | 1 (weak activity comprising less than 50% of the cells) | 2 (strong activity comprising more than 50% of the cells) | 0 | 0 | 1 (weak activity comprising less than 50% of the cells) | 2 (strong activity comprising more than 50% of the cells) | 0 | 0 | 1 (weak activity comprising less than 50% of the cells) | 2 (strong activity comprising more than 50% of the cells) | 0 | 0 | 2 (strong activity comprising more than 50% of the cells) | 2 (strong activity comprising more than 50% of the cells) | 0 | 0 | 0 | IC50 (HeLa): > 1000 nM; IC50 (Jurkat): > 1000 nM; IC50 (MRC5): > 1000 nM; Hoechst 33342 nuclear staining score, MRC5 ([1]; conc 3): 1 (weak activity comprising less than 50% of the cells); Hoechst 33342 nuclear staining score, PBLs ([1]; conc 0.1): 0; Hoechst 33342 nuclear staining score, PBLs ([1]; conc 0.3): 0; Hoechst 33342 nuclear staining score, PBLs ([1]; conc 1): 0; Hoechst 33342 nuclear staining score, PBLs ([1]; conc 3): 0
